Here are results for 1 molecule from paper PMC10518255, “A first-in-class pan-lysyl oxidase inhibitor impairs stromal remodeling and enhances gemcitabine response and survival in pancreatic cancer” (Nature Cancer, 2023).

The structures appear in SMILES notation. “And” between values parts separate entries of the source, which are not always exact repeats. Equal values may be shown once.

The subject of test [1] is human pancreatic cancer CAF remodeled organotypic matrices. Briefly: Matrix stiffness by unconfined compression testing of organotypic matrices. The class given is cell-based. Conditions: human pancreatic cancer CAFs, PXS-5505 during remodeling. The method, then: Unconfined compression of 3D organotypic collagen matrices treated with or without PXS-5505 was performed on a TA Instruments Dynamic Hybrid Rheometer (DHR-3, TA Instruments). Remodeled collagen matrices were placed between upper and lower parallel plate geometries. A constant linear compressive rate of 5 µm s^−1 was applied to the samples and axial force (N) and gap (mm) were collected every 0.01 s. Data were processed and a stress–strain curve for each replicate was obtained. Bulk elastic modulus (kPa) was obtained as the gradient of the linear region of the stress–strain curve corrected for cross-sectional area of sample and normalized to control. Data points represent biological replicates. […]
Extended Data Fig. 4 PXS-5505 inhibits collagen cross-linking by PDAC CAFs in vitro resulting in decreased cancer cell invasion. a. […] Chemical structures of lysyl oxidase family catalyzed hydroxyallysine or allysine residues and the subsequent divalent and trivalent bonds that are formed that can be quantified by mass spectrometry. c. […] Relative fold expression of LOXL family members compared to LOX were determined by 2^–∆∆Ct approach. f. […] Comparison of measured area of matrices between control, PXS-5120 and PXS-5505 treatment groups (n = 3) over time. i. […] Representative images of invasion of KPC cancer cells into a contracted organotypic matrix as determined by H&E staining. […]

For the next test, the system named is MPO. Briefly: Immunohistochemistry of end-point KPC tumors: myeloperoxidase cell infiltration. The class given is in vivo, mouse. Conditions: KPC tumours at endpoint; individual replicate values (Extended Data 6H). The method, then: (§1) All tissues or matrices, including patient TMAs, were fixed in 10% buffered formalin and embedded in paraffin. The 4-μm sections of samples were deparaffinized with xylene and rehydrated in graded ethanol washes. For immunohistochemistry, Bond Dewax Solution (AR9222) was used. Antigen retrieval was performed using Bond RX H2(30) protocol: HIER 30 min ER1 (citrate pH 6) OR ER2 (EDTA pH 9) at 100 °C. Slides were quenched in BOND Polymer Refine Detection (Leica Biosystems DS9800). […] Slides were digitized on an Aperio slide scanner and representative areas per tumor acquired and analyzed by researchers blinded to the conditions of the experiment.
(§2) Extended Data Fig. 6 PXS-5505 in combination with gemcitabine in a KPC model. a. Quantification of proliferating cells (Ki67 positive nuclear staining) in KPC tumors at end point, treated as indicated. 5 fields of view (500 μm × 500 μm) per mouse and 10 mice per cohort were scored. […] Quantification of percent coverage of αSMA positive staining in KPC tumors at end point, treated as indicated. 3 fields of view (1000 μm × 1000 μm) per mouse and 10 mice per cohort were scored. […] Quantification of percent coverage of PDGFR-ß positive staining in KPC tumors at end point, treated as indicated. 3 fields of view (1000 μm × 1000 μm) per mouse and 10 mice per cohort were scored. […] 3 fields of view (500 μm × 500 μm) per mouse and 10 mice per cohort were scored. […]

Another test has as its system CD8. Description: Immunohistochemistry of end-point KPC tumors: T-cell infiltration. The class given is in vivo, mouse. Conditions: KPC tumours at endpoint; individual replicate values (Extended Data 6I). How it is done:
as §1, §2

For the molecule `Cl.Cl.NC/C=C(\F)CS(=O)(=O)c1cccc2cccnc12.O` [PXS-5505, (Z)-3-fluoro-4-(quinolin-8-ylsulfonyl)but-2-en-1-amine dihydrochloride monohydrate], in test [1], the “stiffness (bulk modulus) of remodeled organotypic matrices” value is recorded as “decrease in stiffness (bulk modulus)”. Also, the “number of myeloperoxidase (MPO+) cell infiltration” value with MPO was 11. Besides, the “T-cell infiltration (CD8 positive staining)” value in the test with CD8 was 7 and 5.
